From US20240360153A1 (Regeneron Pharmaceuticals, Inc., priority 2023, published 2024)
pIC50: −log10 of the molar value.

Columns and labels:
[1] = tested on: S6K1 (Thr389) phosphorylation (mTORC1 activity) in FKBP12 knock-out 293T cells; test: Inhibition of S6K1 (Thr389) phosphorylation in FKBP12 knock-out 293T cells (ELISA); assay type: cell-based, human; details: for selectivity for FKBP12 compared with RAD001 (in words): wild-type versus FKBP12 knock-out cells; for inhibition at 10 µM: Homo sapiens, HEK-293T, 10 μM (highest tested concentration)
Text: Example Generation of FKBP 12 knock-out cells. A CRISPR/Cas9 system was used to deliver ribonucleoprotein complexes containing guide RNA sequences that target FKBP12 (ac[…], location 1369062; ccactactcac[…], location 1369181) in HEK293T cells using Lipofectamine CRISPRMAX transfection reagent (Invitrogen CMAX00008). Cell clones were screened by immunoblotting with anti-FKBP-specific antibody (Novus, NB300-508). Single cells that were deficient for FKBP12 protein were selected and cloned.
(§1) Treatment of wild-type (WT) and FKBP12 knock-out 293T cells with RAD001 (everolimus) and test compounds. WT and FKBP12 knock-out 293T cells were cultured in Dulbecco's modified Eagle's medium (Gibco #11971-025) supplemented with 10% fetal bovine serum (Gibco #26140-079). Cells were plated at a density of 15,000 cells per well in poly-D-Lysine coated 96-well plates (Corning, #354461) and were incubated at 37° C., 5% CO2 for 24 hours until they reached ˜80% confluence. Cells were treated with RAD001 or test compounds reconstituted in dimethyl sulfoxide (DMSO) using a 8-11-point dose range, from 0.001 pM to 10 μM. All treatments were performed in duplicates for 2 hours at 37° C. Cell culture media supplemented with blank dimethyl sulfoxide (DMSO) was used as a negative control for all compounds. Phosphorylated amounts of S6K1 (Thr389) were measured using an ELISA kit (Invitrogen 85-86052-11), following the manufacture's protocol.
(§2) S6K1 is an immediate downstream target of mTORC1 and therefore phosphorylation of S6K1 at Thr389 residue is used to measure mTORC1 activity (PMID: 16968213). Amounts of phosphorylated S6K1 (Thr389) were measured in WT and FKBP12 knock-out 293T cells treated with either RAD001 or Compound 44 (FIGS. 1A and 1B), and Compound 45 (FIGS. 1C and 1D).

[2] = tested on: S6K1 (Thr389) phosphorylation (mTORC1 activity) in wild-type (WT) 293T cells; test: Inhibition of S6K1 (Thr389) phosphorylation in wild-type 293T cells (ELISA); assay type: cell-based, human; details: for pIC50: Homo sapiens, HEK-293T, 2 h, wild-type 293T cells, 2 hours treatment; for extent of inhibition of S6K1 (Thr389) phosphorylation / fold lower potency compared with RAD001 (by IC50): wild-type cells; for extent of inhibition of S6K1 (Thr389) phosphorylation: with increasing concentrations
Experimental: as §1, §2

[3] = In vitro microsomal metabolic stability, CD-1 mouse liver microsomes; assay type: in vitro ADME
Experimental: (§3) Buffers: PBK Buffer: 50 mM potassium phosphate buffer (PPB), pH 7.2, with 3.3 mM Magnesium Chloride.
(§4) TA Intermediate solution: Compound or control (3 μL) diluted from stock solution (10 mM) with 297 μL 90.0% methanol/water. (Conc: 100 μM; 1.0% DMSO, 89.1% MeOH).
(§5) Control cocktail intermediate solution: Each control (3 μL) was diluted with 291 μL 90.0% methanol/water.
(§6) Diluted TA intermediate stock solution and PC control stock were made by transferring 80 μL of 100 μM TA stock solution into new tubes and then adding 720 μL of 1.0% DMSO in 50 mM potassium phosphate buffer (conc. 10 μM; 1.0% DMSO, 8.91% MeOH).
(§7) Preparation of Liver microsomes working solution (1.25×)(final Conc.: 0.5 mg/mL).
(§8) Acetonitrile:methanol (9:1, v/v)(including 200 ng/mL tolbutamide and 200 ng/ml labetalol hydrochloride as internal standards).
(§9) Working solution: Intermediate solution (80 μL) was diluted with 720 μL 1.0% DMSO in 50 mM potassium phosphate buffer (Conc.: 10 μM; 1.0% DMSO, 8.91% MeOH)
(§10) Procedure: Stock solution was added to each of the time point plates. Microsomes solution (360 μL/well), TA/PC (45 μL/well), and NADPH (45 μL/well) min. (Conc: 1.0 μM, 0.10% DMSO, 0.891% MeOH) were added to the incubation plates. To the T60 and NCF60 plate, TA (15 ul/well) and Microsomes (120 ul) were added. To the blank plate, microsome (50 ul/well) with stop solution (150 ul/well) were added. At the end of each time point, 50 ul/well was aliquoted from the incubation plate. The sampling plates were shaken for approximately 10 min. on a shaker and the samples were centrifuged at 4000 rpm for 15 min. Supernatant (120 μL) was transferred for LC/MS/MS.Compounds from Table 3 were incubated at 37° C. with liver microsomes (pooled from multiple donors) at 1 μM in the presence of a NADPH regenerating system at 0.5 mg/ml microsomal protein. Positive controls included testosterone (3A4 substrate), propafenone (2D6) and diclofenac (2C9), which were incubated with microsomes in the presence of an NADPH regenerating system. At time points (0, 5, 10, 20, 30 and 60 minutes), samples were removed and immediately mixed with cold acetonitrile containing the internal standard (IS). Test compounds incubated with microsomes without the NADPH regenerating system for 60 min are also included. A single point for each test condition (n=1) was obtained, and samples were analyzed by LC/MS/MS. Disappearance of the test compound was assessed based on peak area ratios of analyte/IS (no standard curve).

[4] = In vitro microsomal metabolic stability, human liver microsomes; assay type: in vitro ADME
Experimental: as §3, §4, §5, §6, §7, §8, §9, §10

[5] = CD-1, mouse, mouse liver microsomes, pH 7.2
[6] = human, human liver microsomes, pH 7.2

CO[C@@H]1CC(C[C@@H](C)[C@@H]2CC[C@H](C)/C=C(\C)[C@@H](O)[C@@H](OC)C(=O)[C@H](C)C[C@H](C)/C=C/C=C/C=C(\C)C(Nc3cncc(C)n3)CC3CC[C@@H](C)[C@@](O)(O3)C(=O)C(=O)N3CCCC[C@H]3C(=O)O2)CC[C@H]1O (stereo partly drawn) [Compound 28, (3S,6S,7E,9R,10R,12R,14S,15E,17E,19E,23S,26R,27R,34aS)-9,27-dihydroxy-3-((R)-1-((1S,3R,4R)-4-hydroxy-3-methoxycyclohexyl)propan-2-yl)-10-methoxy-6,8,12,14,20,26-hexamethyl-21-((6-methylpyrazin-2-yl)amino)-5,6,9,10,12,13,14,21,22,23,24,25,26,27,32,33,34,34a-octadecahydro-3H-23,27-epoxypyrido[2,1-c][1]oxa[4]azacyclohentriacontine-1,11,28,29(4H,31H)-tetraone]
IC50 of inhibition of S6K1 (Thr389) ([1]; FKBP12 knock-out 293T cells): not measurable/detectable | inhibition of S6K1 (Thr389) phosphorylation in the absence of FKBP12 (in words) ([1]; FKBP12 knock-out cells): behaved in a similar fashion to RAD001 | selectivity for FKBP12 compared with RAD001 (in words) [1]: not greater compared with RAD001 | pIC50 [2]: 8.52 | extent of inhibition of S6K1 (Thr389) phosphorylation [2]: complete inhibition | CLint scaled at 1 µM [3, 5]: 65.7 mL/min/kg | microsomal CLint at 1 µM [3, 5]: 16.6 µL/min/mg | half-life at 1 µM ([3]; CD-1, pH 7.2, Mouse liver microsomes, 1 μM, 0.5 mg/ml protein, NADPH): 83.5 min | Remaining (T = 60 min) ([3]; Mouse liver microsomes, with NADPH, 60 min): 59.40% | Remaining (T = NCF60 min) ([3]; Mouse liver microsomes, without NADPH regenerating system, 60 min): 106% | Remaining (T = 60 min) ([4]; Human liver microsomes, with NADPH, 60 min): 19.40% | Remaining (T = NCF60 min) ([4]; Human liver microsomes, without NADPH regenerating system, 60 min): 84.00% | CLint scaled at 1 µM [4, 6]: 47.5 mL/min/kg | microsomal CLint at 1 µM [4, 6]: 52.8 µL/min/mg | half-life at 1 µM ([4]; pH 7.2, Human liver microsomes, 1 μM, 0.5 mg/ml protein, NADPH): 26.3 min

CO[C@@H]1C[C@H](C[C@@H](C)[C@@H]2CC[C@H](C)/C=C(\C)[C@@H](O)[C@@H](OC)C(=O)[C@H](C)C[C@H](C)/C=C/C=C/C=C(\C)C(N(C)c3ccccc3)C[C@@H]3CC[C@@H](C)[C@@](O)(O3)C(=O)C(=O)N3CCCCC3C(=O)O2)CC[C@H]1O (stereo partly drawn) [Compound 63, (3S,6S,7E,9R,10R,12R,14S,15E,17E,19E,23S,26R,27R,34aS)-9,27-dihydroxy-3-((R)-1-((1S,3R,4R)-4-hydroxy-3-methoxycyclohexyl)propan-2-yl)-10-methoxy-6,8,12,14,20,26-hexamethyl-21-(methyl(phenyl)amino)-5,6,9,10,12,13,14,21,22,23,24,25,26,27,32,33,34,34a-octadecahydro-3H-23,27-epoxypyrido[2,1-c][1]oxa[4]azacyclohentriacontine-1,11,28,29(4H,31H)-tetraone]
inhibition at 10 µM ([1]; FKBP12 knock-out cells): 17% | selectivity for FKBP12 compared with RAD001 (in words) [1]: more selective than RAD001 | pIC50 [2]: 8.61 | fold lower potency compared with RAD001 (by IC50) [2]: 10 fold | extent of inhibition of S6K1 (Thr389) phosphorylation [2]: near complete inhibition

COC1C(=O)[C@H](C)C[C@H](C)/C=C/C=C/C=C(\C)C(NS(=O)(=O)c2cccc(C)c2)C[C@@H]2CC[C@@H](C)[C@@](O)(O2)C(=O)C(=O)N2CCCC[C@H]2C(=O)OC([C@H](C)CC2CC[C@@H](O)C(OC)C2)CC[C@H](C)/C=C(\C)C1O (stereo partly drawn) [Compound 72, N-((3S,6S,7E,9R,10R,12R,14S,15E, 17E,19E,23S,26R,27R,34aS)-9,27-dihydroxy-3-((R)-1-((1S,3R,4R)-4-hydroxy-3-methoxycyclohexyl)propan-2-yl)-10-methoxy-6,8,12,14,20,26-hexamethyl-1,11,28,29-tetraoxo-1,4,5,6,9,10,11,12,13,14,21,22,23,24,25,26,27,28,29,31,32,33,34,34a-tetracosahydro-3H-23,27-epoxypyrido[2,1-c][1]oxa[4]azacyclohentriacontin-21-yl)-3-methylbenzenesulfonamide]
inhibition of S6K1 (Thr389) phosphorylation in the absence of FKBP12 (in words) ([1]; FKBP12 knock-out cells): inhibited S6K1 (Thr389)phosphorylation in a dose dependent manner | inhibition at 10 µM ([1]; FKBP12 knock-out cells): 40% | pIC50 [2]: 9.04 | fold lower potency compared with RAD001 (by IC50) [2]: 5.2 fold | extent of inhibition of S6K1 (Thr389) phosphorylation [2]: near complete inhibition

COC1C(=O)[C@H](C)C[C@H](C)/C=C/C=C/C=C(\C)C(N(C)S(=O)(=O)c2ccccc2)C[C@@H]2CC[C@@H](C)[C@@](O)(O2)C(=O)C(=O)N2CCCC[C@H]2C(=O)OC([C@H](C)CC2CC[C@@H](O)C(OC)C2)CC[C@H](C)/C=C(\C)C1O (stereo partly drawn) [Compound 73, N-((3S,6S,7E,9R,10R,12R,14S,15E, 17E,19E,23S,26R,27R,34aS)-9,27-dihydroxy-3-((R)-1-((1S,3R,4R)-4-hydroxy-3-methoxycyclohexyl)propan-2-yl)-10-methoxy-6,8,12,14,20,26-hexamethyl-1,11,28,29-tetraoxo-1,4,5,6,9,10,11,12,13,14,21,22,23,24,25,26,27,28,29,31,32,33,34,34a-tetracosahydro-3H-23,27-epoxypyrido[2,1-c][1]oxa[4]azacyclohentriacontin-21-yl)-N-methylbenzenesulfonamide]
concentration achieving 20% inhibition of S6K1 (Thr389) phosphorylation ([1]; FKBP12 knock-out cells): 2.7 nM | inhibition at 10 µM ([1]; FKBP12 knock-out cells): ~60% | selectivity for FKBP12 compared with RAD001 (in words) [1]: not FKBP12 selective | pIC50 [2]: 8.65 | fold lower potency compared with RAD001 (by IC50) [2]: 13 fold | extent of inhibition of S6K1 (Thr389) phosphorylation [2]: near complete inhibition
